Test results reported in ChEMBL document CHEMBL1201862, “PubChem BioAssay data set” (2004).
Where a name gives a salt, the structure may show the parent alone. One block for each compound: values may come before it. The source made the active and inactive calls.

Legend:
[1] = Jurkat T cell cytotoxicity, dose response, cytotoxicity control for P. falciparum gametocyte viability project, luminescence (AID 1117277); assay type: functional, cell-based;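 also: potency reflects loss of cellular ATP meaning fewer viable cells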
[2] = Late stage results for the probe development effort to identify inhibitors of Plasmodium falciparum gametocytes: Luminescence-based cell-based high throughput dose response assay to identify inhibitors of viability of late stage Plasmodium falciparum gametocytes.; assay type: functional
[3] = P. falciparum late gametocyte killing, dose response, luminescence (AID 1117278); assay type: functional, cell-based;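 also: gametocytes exposed to compound for 24 hours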
[4] = P. falciparum Dd2 growth inhibitors, dose response, SYBR Green, dry powder samples, set 4 (AID 1159572); assay type: functional, cell-based
Cytochrome P450 1A2 = molecular target: T1, Cytochrome P450 1A2 (Homo sapiens, UniProt P05177);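 also: PubChem cytochrome P450 panel assay, CYP1A2 panel member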
T1 sequence (P05177 whole entry): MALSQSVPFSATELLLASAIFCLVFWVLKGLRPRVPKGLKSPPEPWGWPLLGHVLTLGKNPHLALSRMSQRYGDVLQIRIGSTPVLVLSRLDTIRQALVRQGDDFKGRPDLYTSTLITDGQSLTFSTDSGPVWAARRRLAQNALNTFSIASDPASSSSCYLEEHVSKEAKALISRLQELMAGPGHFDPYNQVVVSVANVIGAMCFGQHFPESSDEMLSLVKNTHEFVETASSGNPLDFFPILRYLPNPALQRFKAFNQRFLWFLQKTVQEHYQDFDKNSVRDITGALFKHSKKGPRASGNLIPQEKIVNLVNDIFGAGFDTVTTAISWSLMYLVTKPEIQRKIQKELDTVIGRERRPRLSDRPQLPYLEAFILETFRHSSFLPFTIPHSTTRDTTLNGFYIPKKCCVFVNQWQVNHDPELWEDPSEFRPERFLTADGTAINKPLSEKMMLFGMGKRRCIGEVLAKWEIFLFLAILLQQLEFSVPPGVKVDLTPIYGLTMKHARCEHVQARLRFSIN

[5] = molecular target: Sphingosine 1-phosphate receptor 2 (Homo sapiens, UniProt O95136); test: Dose Response Cell Based Assay for Agonists of the S1P2 Receptor. [Related pubchem assays: 729, 736, 843 ]; assay type: functional
Sequence of Sphingosine 1-phosphate receptor 2 (O95136 whole entry): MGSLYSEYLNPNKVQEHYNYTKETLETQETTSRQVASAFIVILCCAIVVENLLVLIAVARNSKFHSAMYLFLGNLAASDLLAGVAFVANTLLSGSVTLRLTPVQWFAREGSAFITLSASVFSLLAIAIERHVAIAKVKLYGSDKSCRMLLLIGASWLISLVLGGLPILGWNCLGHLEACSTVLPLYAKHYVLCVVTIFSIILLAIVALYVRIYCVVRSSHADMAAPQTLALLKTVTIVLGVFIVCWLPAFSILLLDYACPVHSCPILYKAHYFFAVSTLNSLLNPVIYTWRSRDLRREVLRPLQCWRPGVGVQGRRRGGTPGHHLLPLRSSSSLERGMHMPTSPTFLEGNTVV

Cytochrome P450 2C19 = Cytochrome P450 2C19 (Homo sapiens, UniProt P33261); test: Cytochrome panel assay with activity outcomes. Panel member name: p450-cyp2c19 Compounds with AC50 equal or less than 10 uM are considered active; assay type: functional; settings: read-out: AC50
Sequence of Cytochrome P450 2C19 (P33261 whole entry): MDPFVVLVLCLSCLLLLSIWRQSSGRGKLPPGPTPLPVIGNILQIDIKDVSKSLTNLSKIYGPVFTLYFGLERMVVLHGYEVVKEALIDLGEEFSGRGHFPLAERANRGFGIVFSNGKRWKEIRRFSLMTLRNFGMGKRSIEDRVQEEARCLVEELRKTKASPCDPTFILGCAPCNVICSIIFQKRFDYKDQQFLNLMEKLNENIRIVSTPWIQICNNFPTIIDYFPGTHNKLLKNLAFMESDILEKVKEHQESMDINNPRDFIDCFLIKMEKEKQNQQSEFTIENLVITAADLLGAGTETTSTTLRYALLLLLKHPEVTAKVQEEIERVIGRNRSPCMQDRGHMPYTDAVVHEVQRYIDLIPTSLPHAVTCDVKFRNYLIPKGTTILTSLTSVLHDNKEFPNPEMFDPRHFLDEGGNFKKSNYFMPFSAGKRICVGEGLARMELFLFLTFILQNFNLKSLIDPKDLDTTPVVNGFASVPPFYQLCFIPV

[6] = molecular target: RNA-editing ligase 1, mitochondrial (Trypanosoma brucei brucei, UniProt P86926); test: TbREL1 ligase inhibitors, dose response, biochemical, fluorescence, Trypanosoma brucei (AID 1117295); assay type: functional
Sequence of RNA-editing ligase 1, mitochondrial (P86926 whole entry): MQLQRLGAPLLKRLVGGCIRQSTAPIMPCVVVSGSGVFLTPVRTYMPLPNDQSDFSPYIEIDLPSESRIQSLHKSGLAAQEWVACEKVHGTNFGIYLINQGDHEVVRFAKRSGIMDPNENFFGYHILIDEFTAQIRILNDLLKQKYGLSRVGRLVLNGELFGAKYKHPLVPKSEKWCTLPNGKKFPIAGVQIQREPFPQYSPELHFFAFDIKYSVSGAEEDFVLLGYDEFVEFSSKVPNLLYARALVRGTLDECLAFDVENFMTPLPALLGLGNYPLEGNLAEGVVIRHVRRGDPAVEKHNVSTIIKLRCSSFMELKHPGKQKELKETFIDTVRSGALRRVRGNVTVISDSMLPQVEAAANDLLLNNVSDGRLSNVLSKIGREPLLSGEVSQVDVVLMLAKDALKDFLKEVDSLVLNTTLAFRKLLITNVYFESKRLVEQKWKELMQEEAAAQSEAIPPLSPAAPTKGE

[7] = Dose-response inhibition of insulin secretion in a rat insulinoma line at 5 mM glucose (AID 1117331); assay type: functional, cell-based; settings: INS-1E
[8] = molecular target: Glutathione-S-transferase (Schistosoma japonicum, UniProt Q26513); test: biotin-GST/anti-GST TR-FRET signal inhibitors, dose response, artefact control for Vif-APOBEC3G degradation inhibitor project, biochemical (AID 1117362); assay type: functional
Sequence of Glutathione-S-transferase (Q26513 whole entry): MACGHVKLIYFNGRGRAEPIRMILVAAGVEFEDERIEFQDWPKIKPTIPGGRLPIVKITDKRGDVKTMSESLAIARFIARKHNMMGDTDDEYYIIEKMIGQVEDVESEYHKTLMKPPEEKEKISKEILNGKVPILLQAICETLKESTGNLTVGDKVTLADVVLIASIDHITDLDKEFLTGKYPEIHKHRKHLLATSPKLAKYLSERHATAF

[9] = molecular target: Metabotropic glutamate receptor 7 (Homo sapiens, UniProt Q14831); test: mGlu7 positive allosteric modulators, dose response, cell-based, calcium mobilization, Galpha15 (AID 743384); assay type: functional
Sequence of Metabotropic glutamate receptor 7 (Q14831 whole entry): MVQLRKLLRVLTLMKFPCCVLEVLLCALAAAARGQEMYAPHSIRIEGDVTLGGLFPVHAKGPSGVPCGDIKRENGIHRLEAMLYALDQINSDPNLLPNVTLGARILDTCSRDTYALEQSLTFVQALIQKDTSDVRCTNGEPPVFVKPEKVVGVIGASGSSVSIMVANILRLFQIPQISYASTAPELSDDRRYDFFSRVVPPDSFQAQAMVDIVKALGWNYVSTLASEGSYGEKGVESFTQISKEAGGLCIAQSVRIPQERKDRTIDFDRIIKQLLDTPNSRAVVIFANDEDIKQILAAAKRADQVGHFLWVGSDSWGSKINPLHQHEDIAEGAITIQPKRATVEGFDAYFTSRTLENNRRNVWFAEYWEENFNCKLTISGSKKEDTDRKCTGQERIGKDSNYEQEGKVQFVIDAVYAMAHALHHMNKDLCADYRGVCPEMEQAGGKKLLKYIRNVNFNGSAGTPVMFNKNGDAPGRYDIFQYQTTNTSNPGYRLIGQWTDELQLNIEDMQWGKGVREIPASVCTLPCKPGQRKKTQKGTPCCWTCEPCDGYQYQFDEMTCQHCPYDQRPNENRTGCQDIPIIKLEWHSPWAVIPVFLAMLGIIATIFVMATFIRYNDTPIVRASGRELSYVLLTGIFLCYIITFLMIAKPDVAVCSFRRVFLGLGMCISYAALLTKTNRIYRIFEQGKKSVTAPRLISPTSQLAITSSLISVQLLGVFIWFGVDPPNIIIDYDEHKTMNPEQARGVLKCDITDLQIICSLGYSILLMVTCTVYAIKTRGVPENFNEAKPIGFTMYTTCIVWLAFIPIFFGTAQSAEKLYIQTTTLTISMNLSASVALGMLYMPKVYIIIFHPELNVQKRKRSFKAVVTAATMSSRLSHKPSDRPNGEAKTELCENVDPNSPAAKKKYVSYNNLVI

[10] = molecular target: T2, Aryl hydrocarbon receptor (Homo sapiens, UniProt P35869); settings: Potency;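 also: confirmatory quantitative high-throughput screen measuring activation of the AhR signaling pathway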
T2 sequence (P35869 whole entry): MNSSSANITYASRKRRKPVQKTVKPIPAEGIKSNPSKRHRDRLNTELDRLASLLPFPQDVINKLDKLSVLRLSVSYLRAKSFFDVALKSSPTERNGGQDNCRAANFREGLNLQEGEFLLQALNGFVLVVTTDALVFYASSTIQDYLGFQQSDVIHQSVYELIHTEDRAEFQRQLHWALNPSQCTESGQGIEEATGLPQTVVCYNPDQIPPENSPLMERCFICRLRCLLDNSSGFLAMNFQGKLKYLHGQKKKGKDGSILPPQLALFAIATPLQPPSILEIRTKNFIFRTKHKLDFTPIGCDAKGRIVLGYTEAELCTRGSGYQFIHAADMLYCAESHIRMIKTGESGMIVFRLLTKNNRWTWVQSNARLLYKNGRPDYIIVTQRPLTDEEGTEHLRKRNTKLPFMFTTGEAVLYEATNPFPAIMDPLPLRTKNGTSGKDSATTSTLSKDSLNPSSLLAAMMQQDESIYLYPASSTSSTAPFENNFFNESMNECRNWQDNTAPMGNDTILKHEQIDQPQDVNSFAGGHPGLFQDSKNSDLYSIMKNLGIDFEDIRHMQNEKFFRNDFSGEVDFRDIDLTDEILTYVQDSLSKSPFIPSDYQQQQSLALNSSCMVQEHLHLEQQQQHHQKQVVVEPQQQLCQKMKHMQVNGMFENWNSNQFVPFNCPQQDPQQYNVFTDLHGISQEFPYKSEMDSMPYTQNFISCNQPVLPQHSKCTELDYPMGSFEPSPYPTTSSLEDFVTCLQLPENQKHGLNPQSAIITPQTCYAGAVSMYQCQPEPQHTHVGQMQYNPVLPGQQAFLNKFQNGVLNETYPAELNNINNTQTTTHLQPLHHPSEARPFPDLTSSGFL

[11] = half-maximal inhibitory concentration for glucagon-like peptide-1 release, STC-1 cell line, dose-response (AID 1117345); assay type: functional, cell-based
[12] = Glucagon-like peptide 1 release potency, NCI-H716 cell line, dose-response, half-maximal inhibitory concentration (AID 1117344); assay type: functional, cell-based
Heat shock protein HSP90 = Heat shock protein HSP90 (Homo sapiens, UniProt P07900+P08238); test: tumor Hsp90 inhibitor potency, dose response (AID 712); assay type: functional
[13] = molecular target: T3, Dual specificity protein phosphatase 6 (Rattus norvegicus, UniProt Q64346); test: MKP-3 phosphatase inhibitors, primary screen, biochemical, rat enzyme, in vitro (AID 425)
T3 sequence (Q64346 whole entry): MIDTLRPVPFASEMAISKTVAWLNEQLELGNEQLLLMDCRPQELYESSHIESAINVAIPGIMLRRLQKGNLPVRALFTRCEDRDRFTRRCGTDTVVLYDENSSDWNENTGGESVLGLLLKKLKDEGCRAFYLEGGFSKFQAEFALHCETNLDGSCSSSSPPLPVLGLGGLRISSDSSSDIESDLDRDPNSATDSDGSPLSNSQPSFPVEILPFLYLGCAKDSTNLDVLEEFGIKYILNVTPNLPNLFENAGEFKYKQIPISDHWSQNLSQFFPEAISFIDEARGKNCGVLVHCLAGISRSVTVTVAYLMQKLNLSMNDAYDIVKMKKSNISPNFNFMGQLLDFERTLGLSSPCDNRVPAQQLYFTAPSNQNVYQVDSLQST

[14] = Concentration-dependent survival of SW480 colon cancer line, luminescence detection with CellTiter-Glo, half-maximal inhibitory concentration (AID 1117338); assay type: functional
[15] = CellTiter-Glo luminescent dose response of DLD-1 viability loss (AID 1117352); assay type: functional
[16] = HCT116 cell viability decrease, GSK3B pretreatment – CellTiter-Glo, IC50, dose response (AID 1117339); assay type: functional; settings: HCT-116
[17] = RKO cell viability reduction, dose response, CellTiter-Glo luminescence (AID 1117322); assay type: functional
[18] = cytotoxicity toward Colo320 cells – cell-based, CellTiter-Glo luminescence, IC50, dose response (AID 1117334); assay type: functional; settings: COLO 320
[19] = cytotoxicity toward HCT116 cells – cell-based, CellTiter-Glo luminescence, IC50, dose response (AID 1117332); assay type: functional; settings: HCT-116
[20] = SNU-C1 cell viability reduction, dose response, CellTiter-Glo luminescence (AID 1117323); assay type: functional, cell-based
[21] = cytotoxicity toward HT-29 cells – cell-based, CellTiter-Glo luminescence, IC50, dose response (AID 1117330); assay type: functional
[22] = molecular target: T4, Small ubiquitin-related modifier 1 (Homo sapiens, UniProt P63165); test: inhibitors of SUMO1 partner interactions, dose response, biochemical, FRET (AID 624383); assay type: functional; settings: read-out: IC50_Mean
T4 sequence (P63165 whole entry): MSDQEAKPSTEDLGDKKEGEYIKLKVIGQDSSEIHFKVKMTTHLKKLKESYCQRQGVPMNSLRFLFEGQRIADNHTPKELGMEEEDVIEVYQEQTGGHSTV

Caspase-6 = Caspase-6 (Homo sapiens, UniProt P55212); test: human caspase-6 inhibitors, dose response, biochemical, VEID-R110 fluorescence, cherry-pick (AID 720632)
Sequence of Caspase-6 (P55212 24-179 limits assumed): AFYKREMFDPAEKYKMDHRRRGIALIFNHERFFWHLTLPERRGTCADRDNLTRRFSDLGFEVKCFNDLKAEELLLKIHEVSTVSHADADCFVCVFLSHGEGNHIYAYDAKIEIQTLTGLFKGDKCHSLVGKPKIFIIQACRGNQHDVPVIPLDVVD
Sequence of Caspase-6 (P55212 194-293 limits assumed): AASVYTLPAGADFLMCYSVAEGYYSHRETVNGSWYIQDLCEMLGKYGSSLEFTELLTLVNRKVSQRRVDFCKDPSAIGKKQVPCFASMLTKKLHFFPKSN

[23] = molecular target: E3 ubiquitin-protein ligase UHRF1 (Homo sapiens, UniProt Q96T88); test: Counterscreen for inhibitors of 5-meCpG-binding domain protein 2 (MBD2): TRFRET-based biochemical high throughput dose response assay to identify inhibitors of binding of ubiquitin-like with PHD and ring finger domains 1 (UHRF1) to methylated oligonucleotide.
Sequence of E3 ubiquitin-protein ligase UHRF1 (Q96T88 whole entry, the tested form may be a part): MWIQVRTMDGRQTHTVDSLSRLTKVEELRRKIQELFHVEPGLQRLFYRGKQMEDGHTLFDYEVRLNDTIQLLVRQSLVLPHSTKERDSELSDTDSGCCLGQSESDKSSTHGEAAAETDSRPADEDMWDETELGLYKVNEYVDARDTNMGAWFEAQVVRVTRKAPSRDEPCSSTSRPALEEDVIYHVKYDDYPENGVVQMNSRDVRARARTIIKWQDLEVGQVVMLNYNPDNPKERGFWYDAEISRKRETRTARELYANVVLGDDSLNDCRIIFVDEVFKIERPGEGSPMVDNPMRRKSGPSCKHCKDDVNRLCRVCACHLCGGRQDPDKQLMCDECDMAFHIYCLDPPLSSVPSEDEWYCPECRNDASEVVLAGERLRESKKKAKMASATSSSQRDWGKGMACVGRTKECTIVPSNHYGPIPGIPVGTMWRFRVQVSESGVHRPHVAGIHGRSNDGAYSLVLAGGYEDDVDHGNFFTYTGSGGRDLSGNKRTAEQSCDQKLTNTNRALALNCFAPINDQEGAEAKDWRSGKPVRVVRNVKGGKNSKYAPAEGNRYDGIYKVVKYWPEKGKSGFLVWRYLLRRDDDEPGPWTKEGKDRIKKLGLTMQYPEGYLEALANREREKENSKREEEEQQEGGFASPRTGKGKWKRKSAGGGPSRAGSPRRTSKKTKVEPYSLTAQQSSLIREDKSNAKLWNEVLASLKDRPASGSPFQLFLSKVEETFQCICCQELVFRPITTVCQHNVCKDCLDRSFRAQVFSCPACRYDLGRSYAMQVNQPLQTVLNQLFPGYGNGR

[24] = molecular target: T5, Histone-lysine N-methyltransferase NSD2 (Homo sapiens, UniProt O96028); assay type: biochemical
T5 sequence (O96028 whole entry): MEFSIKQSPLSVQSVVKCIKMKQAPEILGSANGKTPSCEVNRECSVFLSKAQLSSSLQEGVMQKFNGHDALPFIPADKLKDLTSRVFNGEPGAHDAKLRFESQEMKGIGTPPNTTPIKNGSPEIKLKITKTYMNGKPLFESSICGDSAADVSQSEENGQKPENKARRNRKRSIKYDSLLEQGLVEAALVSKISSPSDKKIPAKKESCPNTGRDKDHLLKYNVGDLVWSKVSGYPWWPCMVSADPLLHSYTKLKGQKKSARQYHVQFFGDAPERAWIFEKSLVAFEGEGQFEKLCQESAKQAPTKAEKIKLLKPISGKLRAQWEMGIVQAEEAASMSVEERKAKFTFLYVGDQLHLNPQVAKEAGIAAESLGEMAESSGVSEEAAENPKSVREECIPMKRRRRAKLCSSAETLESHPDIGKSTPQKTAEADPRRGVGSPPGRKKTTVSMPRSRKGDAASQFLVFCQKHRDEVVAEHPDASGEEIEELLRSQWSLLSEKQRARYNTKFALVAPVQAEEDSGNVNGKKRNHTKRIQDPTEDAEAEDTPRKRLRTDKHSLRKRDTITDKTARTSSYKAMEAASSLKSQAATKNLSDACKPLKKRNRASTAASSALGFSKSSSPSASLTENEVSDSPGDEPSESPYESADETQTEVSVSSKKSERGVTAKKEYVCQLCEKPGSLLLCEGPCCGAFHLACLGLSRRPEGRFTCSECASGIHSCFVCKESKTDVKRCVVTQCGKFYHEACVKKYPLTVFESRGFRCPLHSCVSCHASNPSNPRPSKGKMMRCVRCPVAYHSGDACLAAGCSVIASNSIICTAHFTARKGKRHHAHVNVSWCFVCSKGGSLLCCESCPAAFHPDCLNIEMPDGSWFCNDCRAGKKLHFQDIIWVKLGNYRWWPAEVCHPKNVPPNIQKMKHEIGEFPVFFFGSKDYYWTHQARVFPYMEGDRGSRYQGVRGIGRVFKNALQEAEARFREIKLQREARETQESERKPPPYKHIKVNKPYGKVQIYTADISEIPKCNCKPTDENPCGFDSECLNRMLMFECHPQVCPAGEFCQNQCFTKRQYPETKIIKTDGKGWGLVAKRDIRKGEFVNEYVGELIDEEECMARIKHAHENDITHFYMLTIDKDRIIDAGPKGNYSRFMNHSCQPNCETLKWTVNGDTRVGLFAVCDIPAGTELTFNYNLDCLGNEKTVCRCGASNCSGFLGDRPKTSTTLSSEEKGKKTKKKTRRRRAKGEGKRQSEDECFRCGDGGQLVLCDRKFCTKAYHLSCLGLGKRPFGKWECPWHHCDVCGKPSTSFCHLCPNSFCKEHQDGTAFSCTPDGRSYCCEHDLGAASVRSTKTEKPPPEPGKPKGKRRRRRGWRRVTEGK

[25] = molecular target: T4, Small ubiquitin-related modifier 1; test: inhibitors of SUMO1 peptide binding, dose response, biochemical, fluorescence polarization, uHTS hits (AID 624382); assay type: functional; settings: read-out: IC50_Mean

SMILES: O=C(Nc1nccs1)c1cn(-c2ccccc2)nc1-c1ccncc1
IC50 [1]: > 83.3 µM (inactive) | IC50 [2]: > 37.2 µM (inactive) | IC50 [3]: 9.12 µM (active)

SMILES: COc1ccc2c3c([nH]c2c1)[C@H](CO)N(C(C)=O)CC31CCN(Cc2ccccc2Cl)CC1
AC50 [4]: 17.1 µM (active)

AC50 (Cytochrome P450 1A2): 1.41 µM (inconclusive) | EC50 [5]: 2.89 µM (active) | AC50 (Cytochrome P450 2C19): 1.12 µM (inconclusive)
SMILES: O=c1c(-c2nc3ccccc3s2)cccn1Cc1ccc(Cl)cc1

IC50 [6]: > 96.6 µM (inactive)
SMILES: COC(=O)C1=C(C)N(Cc2ccccc2C(F)(F)F)C(NCc2ccc3c(c2)OCO3)=NC1c1cccc(F)c1 (stereo not given)

SMILES: CCN(CC)C(C)CN1c2ccccc2Sc2ccccc21 (stereo not given) [ETHOPROPAZINE HYDROCHLORIDE]
IC50 [7]: > 33.3 µM (inactive)

IC50 [8]: > 100 µM (active)
SMILES: Cc1nc2c(Cl)cccc2c(O)c1CN1CCCC1

EC50 [9]: 10 µM (active)
SMILES: COC(=O)c1ccc(-n2c(C)cc(C(=O)COc3ccc(OC(C)=O)cc3)c2C)cc1

SMILES: CC(C)(Oc1ccc(C2CC2(Cl)Cl)cc1)C(=O)O (stereo not given) [CIPROFIBRATE]
AC50 [10]: 70.8 µM (inconclusive) | IC50 [11]: > 40 µM (inactive) | IC50 [12]: > 40 µM (inactive)

SMILES: CCn1nc(-c2cccs2)nc2c(=O)n(C)c(=O)nc1-2
IC50 (Heat shock protein HSP90): 5 µM | IC50 [13]: 1.98 µM (active)

SMILES: O=C(Nc1ccc(Cl)cc1)Nc1ccc(Cl)c(C(F)(F)F)c1 [CLOFLUCARBAN]
IC50 [14]: 0.009 µM (active) | IC50 [15]: 0.027 µM (active) | IC50 [16]: 0.003 µM (active) | IC50 [17]: 0.003 µM (active) | IC50 [18]: 0.003 µM (active) | IC50 [19]: 0.003 µM (active) | IC50 [20]: 0.009 µM (active) | IC50 [21]: 0.001 µM (active)

SMILES: CCCCn1c(NC(=O)c2ccccc2)c(C#N)c2nc3ccccc3nc21
IC50 [22]: 17.4 µM (active) | AC50 (Caspase-6): 47.4 µM (active) | IC50 [23]: > 43.8 µM (inactive) | AC50 [24]: 2.61 µM (active) | IC50 [25]: > 66.6 µM (inactive) | IC50 [13]: > 100 µM (not active)
